Results taken from patent US5670538A, “Use of prodelphinidins for obtaining medicaments intended for the treatment of arthrosis” (Laboratoires Dolisos, priority 1992, dated 1997).

System: ferricytochrome C
Assay: Control experiments: direct reduction of ferricytochrome C by the product itself
Type: biochemical
Conditions: effect not quantifiable
From the text: This effect not being quantifiable, no conclusion can consequently be drawn on a possible inhibiting effect of these products on the production of the superoxide anion by the activated PMNs.

O=c1ccc2cc(O[C@@H]3O[C@H](CO)[C@@H](O)[C@H](O)[C@H]3O)c(O)cc2o1 [esculoside, reference compound]
Direct reduction of ferricytochrome C: powerful reducers of ferricytochrome C
